# Reference: PMC8286840, “Identifying SARS-CoV-2 antiviral compounds by screening for small molecule inhibitors of Nsp3 papain-like protease” (Biochemical Journal, 2021)
# Counter-ions that a name gives are not always drawn. Like-named read-outs stand apart in the source and are kept apart here.
# Key:
# [1] = biological target: T1, SARS-CoV-2 PLpro (nsp3 1564–1878) (Severe acute respiratory syndrome coronavirus 2, UniProt P0DTD1); test: biochemical; set-up: FRET-quenched peptide (Pro3) cleavage by PLpro, 10 min pre-incubation, slope over 20 min, normalised to no-compound control; settings: low concentration screen, read-out: % of control remaining
# [2] = biological target: T1, SARS-CoV-2 PLpro (nsp3 1564–1878); test: biochemical; set-up: FRET-quenched peptide (Pro3) cleavage by PLpro, 10 min pre-incubation, slope over 20 min, normalised to no-compound control; settings: high concentration screen, read-out: % of control remaining
smiles,measurement,setting,value
CC(CCc1ccccc1)NC(C)C(O)c1ccc(O)cc1 (centres unmarked) [Nylidrin hydrochloride],remaining activity at 1.25 µM,[1]; Well no.=940,96%
same,remaining activity at 3.75 µM,[2]; Well no.=940,95.1%
Cc1ccc(NC(=O)c2cccc(C(C)(C)C#N)c2)cc1Nc1ccc2ncn(C)c(=O)c2c1 [AZ628],remaining activity at 1.25 µM,[1]; Well no.=5037,88.5%
same,remaining activity at 3.75 µM,[2]; Well no.=5037,94.3%
"CCCCC[C@H](O)CC[C@H]1[C@H](O)CC(=O)[C@@H]1CCCCCCC(=O)O [13,14-Dihydro-prostaglandin E1]",remaining activity at 1.25 µM,[1]; Well no.=4278,102%
same,remaining activity at 3.75 µM,[2]; Well no.=4278,101%
COc1cc(/C=C(\C#N)C(=O)c2ccc(O)c(O)c2)cc(I)c1O [I-OMe-Tyrphostin AG 538],remaining activity at 1.25 µM,[1]; Well no.=1420,93%
same,remaining activity at 3.75 µM,[2]; Well no.=1420,92.9%
CC(C)Cc1ccc([C@@H](C)C(=O)NS(C)(=O)=O)cc1 [Reparixin],remaining activity at 1.25 µM,[1]; Well no.=7277,99.5%
same,remaining activity at 1.25 µM,[1]; Well no.=8501,106%
same,remaining activity at 3.75 µM,[2]; Well no.=7277,99.9%
same,remaining activity at 3.75 µM,[2]; Well no.=8501,106%
CCN(CC)CCNC(=O)c1cc(Cl)c(N)cc1OC [Metoclopramide hydrochloride],remaining activity at 1.25 µM,[1]; Well no.=966,100%
same,remaining activity at 3.75 µM,[2]; Well no.=966,103%
O=C(CO)[C@@H](O[C@H]1O[C@H](CO)[C@@H](O)[C@H](O)[C@H]1O)[C@H](O)[C@H](O)CO [Turanose],remaining activity at 1.25 µM,[1]; Well no.=6971,92.9%
same,remaining activity at 3.75 µM,[2]; Well no.=6971,98.6%
CC(C)(C[C@H]1CN(S(=O)(=O)c2cccc(C(F)(F)F)c2)c2cc(-c3cc(F)cc(OC(F)F)c3)ccc2O1)C(=O)O [Cintirorgon],remaining activity at 1.25 µM,[1]; Well no.=8171,99.9%
same,remaining activity at 3.75 µM,[2]; Well no.=8171,98.6%
O=C1/C(=C/c2ccc(O)c(O)c2)Oc2c1ccc(O[C@@H]1O[C@H](CO)[C@@H](O)[C@H](O)[C@H]1O)c2O [Maritimein],remaining activity at 1.25 µM,[1]; Well no.=3339,91.1%
same,remaining activity at 3.75 µM,[2]; Well no.=3339,97.6%
C[C@@H]1CN(C(=O)Nc2ccc(-c3nc(N4CCOCC4)c4cnn(CCCCCCC(=O)NO)c4n3)cc2)CCO1 [HDACs/mTOR Inhibitor 1],remaining activity at 1.25 µM,[1]; Well no.=6964,96.4%
same,remaining activity at 3.75 µM,[2]; Well no.=6964,93.8%
N#CC(C#N)=C(N)/C(C#N)=C/c1cc(O)c(O)c(O)c1 [Tyrphostin 51],remaining activity at 1.25 µM,[1]; Well no.=1324,96.8%
same,remaining activity at 3.75 µM,[2]; Well no.=1324,95.8%
CNC(=C[N+](=O)[O-])NCCSCc1ccc(CN(C)C)o1 [Ranitidine (hydrochloride)],remaining activity at 1.25 µM,[1]; Well no.=6609,102%
same,remaining activity at 3.75 µM,[2]; Well no.=6609,104%
CCCC(=O)Nc1cccc(NC(=O)c2ccccc2Br)c1 [ML-161],remaining activity at 1.25 µM,[1]; Well no.=4845,95%
same,remaining activity at 3.75 µM,[2]; Well no.=4845,93%
"COc1cc(/C=C/c2ccccc2)oc(=O)c1 [5,6-Dehydrokawain]",remaining activity at 1.25 µM,[1]; Well no.=3559,105%
same,remaining activity at 3.75 µM,[2]; Well no.=3559,103%
COC(=O)[C@H]1[C@H]2C[C@H]3c4[nH]c5ccccc5c4CCN3C[C@H]2CC[C@@H]1O [Rauwolscine hydrochloride],remaining activity at 1.25 µM,[1]; Well no.=1400,100%
same,remaining activity at 3.75 µM,[2]; Well no.=1400,99%
S=C(NCc1ccc2c(c1)OCO2)N1CCN(c2ncnc3c2oc2ccccc23)CC1 [MP-470],remaining activity at 1.25 µM,[1]; Well no.=2745,103%
same,remaining activity at 3.75 µM,[2]; Well no.=2745,104%
C[C@@H]1O[C@H](C[N+](C)(C)C)C[C@H]1O [(+)-Muscarine chloride],remaining activity at 1.25 µM,[1]; Well no.=3254,97.9%
same,remaining activity at 3.75 µM,[2]; Well no.=3254,99.2%
CC(C)c1nc(CN(C)C(=O)N[C@@H](CCN2CCOCC2)C(=O)N[C@H](CC[C@H](Cc2ccccc2)NC(=O)OCc2cncs2)Cc2ccccc2)cs1 [Cobicistat (GS-9350)],remaining activity at 1.25 µM,[1]; Well no.=5213,102%
same,remaining activity at 3.75 µM,[2]; Well no.=5213,102%
COc1ccc(CCN2CCN(CCCc3ccccc3)CC2)cc1OC [SA4503 (dihydrochloride)],remaining activity at 1.25 µM,[1]; Well no.=6991,101%
same,remaining activity at 3.75 µM,[2]; Well no.=6991,102%
CC(C)Cc1ccc(C(C)C(=O)O)cc1 (racemic),remaining activity at 1.25 µM,[1]; Well no.=1011,100%
same,remaining activity at 3.75 µM,[2]; Well no.=1011,99.6%
C[C@H]1O[C@@H](n2cnc3c(N)ncnc32)[C@H](O)[C@@H]1O [5'-Deoxyadenosine],remaining activity at 1.25 µM,[1]; Well no.=7251,97.6%
same,remaining activity at 1.25 µM,[1]; Well no.=7904,91.4%
same,remaining activity at 3.75 µM,[2]; Well no.=7251,99%
same,remaining activity at 3.75 µM,[2]; Well no.=7904,94.7%
N=C(N)N/N=C/c1c(Cl)cccc1Cl [Guanabenz],remaining activity at 1.25 µM,[1]; Well no.=1693,105%
same,remaining activity at 3.75 µM,[2]; Well no.=1693,105%
C=C1CC[C@H](O)C/C1=C/C=C1\CCC[C@]2(C)[C@@H]([C@H](C)CCCC(C)C)CC[C@@H]12 [Vitamin D3 (Cholecalciferol)],remaining activity at 1.25 µM,[1]; Well no.=4702,99.7%
same,remaining activity at 3.75 µM,[2]; Well no.=4702,100%
CC(=O)OC[C@H](N)C(=O)O [O-Acetylserine],remaining activity at 1.25 µM,[1]; Well no.=6965,101%
same,remaining activity at 3.75 µM,[2]; Well no.=6965,104%
C[C@@H](CN1CC(=O)NC(=O)C1)N1CC(=O)NC(=O)C1 [Dexrazoxane HCl],remaining activity at 1.25 µM,[1]; Well no.=5139,101%
same,remaining activity at 3.75 µM,[2]; Well no.=5139,104%
C[C@H]1CNCCc2ccc(Cl)cc21 [Lorcaserin HCl],remaining activity at 1.25 µM,[1]; Well no.=4742,102%
same,remaining activity at 3.75 µM,[2]; Well no.=4742,102%
C[C@@H](NCCc1ccc(O)cc1)[C@@H](O)c1ccc(O)cc1 (racemic) [Ritodrine (hydrochloride)],remaining activity at 1.25 µM,[1]; Well no.=6427,100%
same,remaining activity at 3.75 µM,[2]; Well no.=6427,91.3%
NC(=O)NS(=O)(=O)c1ccc(N)cc1 [Sulfacarbamide],remaining activity at 1.25 µM,[1]; Well no.=7502,96.2%
same,remaining activity at 3.75 µM,[2]; Well no.=7502,98.8%
COc1cc2c(cc1OC)CC(=O)N(CCCN(C)C[C@H]1Cc3cc(OC)c(OC)cc31)CC2 [Ivabradine hydrochloride],remaining activity at 1.25 µM,[1]; Well no.=5419,104%
same,remaining activity at 3.75 µM,[2]; Well no.=5419,106%
O=c1[nH]cnc2nc[nH]c12 [Hypoxanthine],remaining activity at 1.25 µM,[1]; Well no.=5246,96.5%
same,remaining activity at 1.25 µM,[1]; Well no.=7269,91.9%
same,remaining activity at 3.75 µM,[2]; Well no.=5246,96.5%
same,remaining activity at 3.75 µM,[2]; Well no.=7269,89.6%
Oc1ccc2c3c1O[C@H]1c4[nH]c5ccccc5c4C[C@@]4(O)[C@@H](C2)N(CC2CC2)CC[C@]314 [Naltrindole hydrochloride],remaining activity at 1.25 µM,[1]; Well no.=1053,92.8%
same,remaining activity at 3.75 µM,[2]; Well no.=1053,93.2%
CCOC(=O)c1ccc(OC(=O)CCCCCNC(=N)N)cc1 [Gabexate mesylate],remaining activity at 1.25 µM,[1]; Well no.=5092,97.5%
same,remaining activity at 3.75 µM,[2]; Well no.=5092,102%
CNC[C@H](O)c1cccc(O)c1 [Phenylephrine hydrochloride],remaining activity at 1.25 µM,[1]; Well no.=958,101%
same,remaining activity at 3.75 µM,[2]; Well no.=958,103%
CN[C@H]1C[C@@H](N)[C@H](O)[C@@H](O[C@@H]2O[C@H](CO)[C@H](O)[C@@H]3OC4(O[C@H]23)O[C@H]([C@@H](N)CO)[C@H](O)[C@H](O)[C@H]4O)[C@@H]1O (some centres unmarked) [Hygromycin B],remaining activity at 1.25 µM,[1]; Well no.=5221,99.8%
same,remaining activity at 3.75 µM,[2]; Well no.=5221,102%
